Experimental data as given in patent US6274715A, “Tricyclic erythromycin derivatives” (priority 1997, dated 2001).
Converted amounts (≈) assume the structure as drawn.

Experiments:
Type in all cases: cell-based
[1] = tested on: STAPHYLOCOCCUS AUREUS ATCC 6538P; experiment: In vitro antibacterial activity, MIC, BHI agar dilution; details: S. aureus ATCC 6538P, 35-37° C., 20 to 24 hours, unit assumed
[2] = tested on: STAPHYLOCOCCUS AUREUS A5177; experiment: as above; details: S. aureus A5177, unit assumed
[3] = tested on: STAPHYLOCOCCUS AUREUS A-5278; experiment: as above; details: S. aureus A-5278, unit assumed
[4] = tested on: STAPHYLOCOCCUS AUREUS CMX 642A; experiment: as above; details: S. aureus CMX 642A, unit assumed
[5] = tested on: STAPHYLOCOCCUS AUREUS NCTC10649M; experiment: as above; details: S. aureus NCTC10649M, unit assumed
[6] = tested on: STAPHYLOCOCCUS AUREUS CMX 553; experiment: as above; details: S. aureus CMX 553, unit assumed
[7] = tested on: STAPHYLOCOCCUS AUREUS 1775; experiment: as above; details: S. aureus 1775, unit assumed
[8] = tested on: STAPHYLOCOCCUS EPIDERMIDIS 3519; details: S. epidermidis 3519; BHI agar; unit assumed
[9] = tested on: EN[…] ATCC 8043; experiment: In vitro antibacterial activity, MIC, BHI agar dilution; details: E. faecium ATCC 8043, unit assumed
Procedure, shortened: (§1)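 MIC was read visually as the lowest drug level with no growth, a slight haze or sparsely isolated colonies relative to a compound-free growth control. Organisms were spotted at 1:100 dilution (1:10 for slow-growing strains) onto Brain Heart Infusion agar containing serial compound dilutions and incubated 20 to 24 hours at 35-37° C.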

[10] = tested on: M[…] ATCC 4698; experiment: as above; details: M. luteus ATCC 4698, unit assumed
Procedure, shortened: as §1

[11] = tested on: M[…] ATCC 9341; experiment: as above; details: M. luteus ATCC 9341, unit assumed
Procedure, shortened: as §1

[12] = tested on: STR[…] 508; experiment: as above; details: S. agalactiae CMX 508, unit assumed
Procedure, shortened: as §1

[13] = tested on: STREPTOCOCCUS BOVIS A-5169; experiment: as above; details: S. bovis A-5169, unit assumed
[14] = tested on: STREPTOCOCCUS PYOGENES EES61; experiment: as above; details: S. pyogenes EES61, unit assumed
[15] = tested on: STREPTOCOCCUS PYOGENES 930; experiment: as above; details: S. pyogenes 930, unit assumed
[16] = tested on: STREPTOCOCCUS PYOGENES PIU 2548; experiment: as above; details: S. pyogenes PIU 2548, unit assumed
[17] = tested on: ESCHERICHIA COLI JUHL; details: E. coli JUHL; BHI agar; unit assumed
[18] = tested on: ESCHERICHIA COLI SS; experiment: In vitro antibacterial activity, MIC, BHI agar dilution; details: E. coli SS, unit assumed
[19] = tested on: ESCHERICHIA COLI DC-2; experiment: as above; details: E. coli DC-2, unit assumed
[20] = tested on: ESCHERICHIA COLI H560; experiment: as above; details: E. coli H560, unit assumed
[21] = tested on: ESCHERICHIA COLI KNK 437; details: E. coli KNK 437; BHI agar; unit assumed
[22] = tested on: ENTEROBACTER AEROGENES ATCC 13048; experiment: In vitro antibacterial activity, MIC, BHI agar dilution; details: E. aerogenes ATCC 13048, unit assumed
[23] = tested on: KLEBSIELLA PNEUMONIAE ATCC 8045; experiment: as above; details: K. pneumoniae ATCC 8045, unit assumed
[24] = tested on: PROVIDENCIA STUARTII CMX 640; details: P. stuartii CMX 640; BHI agar; unit assumed
[25] = tested on: PSEUDOMONAS AERUGINOSA BMH10; experiment: In vitro antibacterial activity, MIC, BHI agar dilution; details: P. aeruginosa BMH10, unit assumed
[26] = tested on: PSEUDOMONAS AERUGINOSA 5007; experiment: as above; details: P. aeruginosa 5007, unit assumed
[27] = tested on: PSEUDOMONAS AERUGINOSA K799/WT; experiment: as above; details: P. aeruginosa K799/WT, unit assumed
[28] = tested on: PSEUDOMONAS AERUGINOSA K799/61; experiment: as above; details: P. aeruginosa K799/61, unit assumed
[29] = tested on: PSEUDOMONAS CEPACIA 296I; experiment: as above; details: P. cepacia 296I, unit assumed
[30] = tested on: PSEUDOMONAS AERUGINOSA DPHD-5263; experiment: as above; details: P. aeruginosa DPHD-5263, unit assumed
[31] = tested on: PSEUDOMONAS AERUGINOSA DPHD-2862; experiment: as above; details: P. aeruginosa DPHD-2862, unit assumed
[32] = tested on: CANDIDA ALBICANS CCH 442; experiment: as above; details: C. albicans CCH 442, unit assumed
[33] = tested on: MYCOBACTERIUM SMEGMATIS ATCC 114; experiment: as above; details: M. smegmatis ATCC 114, unit assumed

Row | Compound | MIC [1] [µg/mL] | MIC [2] [µg/mL] | MIC [3] [µg/mL] | MIC [4] [µg/mL] | MIC [5] [µg/mL] | MIC [6] [µg/mL] | MIC [7] [µg/mL] | MIC [8] [µg/mL] | MIC [9] [µg/mL] | MIC [10] [µg/mL] | MIC [11] [µg/mL] | MIC [12] [µg/mL] | MIC [13] [µg/mL] | MIC [14] [µg/mL] | MIC [15] [µg/mL] | MIC [16] [µg/mL] | MIC [17] [µg/mL] | MIC [18] [µg/mL] | MIC [19] [µg/mL] | MIC [20] [µg/mL] | also measured
1 | CC[C@H]1OC(=O)[C@H](C)C(=O)[C@H](C)[C@@H](O[C@@H]2O[C@H](C)C[C@H](N(C)C)[C@H]2O)[C@](C)(OC)C[C@@H](C)C2=N[C@@H]3CN(CCc4ccccc4)C[C@@H]3N3C(=O)O[C@@]1(C)[C@H]3[C@H]2C [Example 23] | 0.2 (≈ 0.255 µM) | 0.2 (≈ 0.255 µM) | > 100 | 0.2 (≈ 0.255 µM) | 0.2 (≈ 0.255 µM) | 0.2 (≈ 0.255 µM) | > 100 | 0.78 (≈ 0.996 µM) | 0.05 (≈ 0.0639 µM) | 0.2 (≈ 0.255 µM) | 0.05 (≈ 0.0639 µM) | ≤ 0.005 | ≤ 0.005 | ≤ 0.005 | > 100 | 0.78 (≈ 0.996 µM) | 50 (≈ 63.9 µM) | 0.05 (≈ 0.0639 µM) | 12.5 (≈ 16 µM) | 6.2 (≈ 7.92 µM) | MIC [21]: 25 µg/mL (≈ 31.9 µM); MIC [22]: 100 µg/mL (≈ 128 µM); MIC [23]: 100 µg/mL (≈ 128 µM); MIC [24]: > 100 µg/mL; MIC [25]: > 100 µg/mL; MIC [26]: > 100 µg/mL; MIC [27]: 100 µg/mL (≈ 128 µM); MIC [28]: 0.2 µg/mL (≈ 0.255 µM); MIC [29]: 100 µg/mL (≈ 128 µM); MIC [30]: > 100 µg/mL; MIC [31]: > 100 µg/mL; MIC [32]: > 100 µg/mL; MIC [33]: 0.39 µg/mL (≈ 0.498 µM)
2 | CC[C@H]1OC(=O)[C@H](C)C(=O)[C@H](C)[C@@H](O[C@@H]2O[C@H](C)C[C@H](N(C)C)[C@H]2O)[C@](C)(OC)C[C@@H](C)C2=N[C@H](CO)CN3C(=O)O[C@@]1(C)[C@H]3[C@H]2C [Example 52] | 0.78 (≈ 1.17 µM) | 0.78 (≈ 1.17 µM) | > 100 | 0.78 (≈ 1.17 µM) | 0.78 (≈ 1.17 µM) | 0.78 (≈ 1.17 µM) | > 100 | 0.78 (≈ 1.17 µM) | 0.2 (≈ 0.299 µM) | 0.39 (≈ 0.584 µM) | 0.1 (≈ 0.15 µM) | 0.05 (≈ 0.0749 µM) | 0.05 (≈ 0.0749 µM) | 0.05 (≈ 0.0749 µM) | > 100 | 1.56 (≈ 2.34 µM) | 100 (≈ 150 µM) | 0.39 (≈ 0.584 µM) | 100 (≈ 150 µM) | 50 (≈ 74.9 µM) | MIC [21]: 100 µg/mL (≈ 150 µM); MIC [22]: > 100 µg/mL; MIC [23]: > 100 µg/mL; MIC [24]: > 100 µg/mL; MIC [25]: > 100 µg/mL; MIC [26]: > 100 µg/mL; MIC [27]: > 100 µg/mL; MIC [28]: 1.56 µg/mL (≈ 2.34 µM); MIC [29]: > 100 µg/mL; MIC [30]: > 100 µg/mL; MIC [31]: > 100 µg/mL; MIC [32]: > 100 µg/mL; MIC [33]: 12.5 µg/mL (≈ 18.7 µM)
